Source: US10351525B2, “Beta lactamase inhibitors” (Oxford University Innovation Limited, priority 2014, dated 2019)

Legend:
[1] = test system: Galleria mellonella wax moth larvae; test: In vivo toxicity in wax moth larvae model; conditions: doses up to 80 mg/kg
P. aeruginosa GR57 = test: MEM/ML302F treatment assay in infected G. mellonella larvae; assay type: in vivo; conditions: PA GR57 infection; 96 hrs; MEM 0.6 mg/kg, ML302F 4.8 mg/kg, alone or combined (1:8)
Description: (§1) The activity of MEM and ML302F alone and in combination were assessed using 16 G. mellonella larva as described by M. Hornsey and D. W. Wareham (Antimicrob. Agents Chemother., 2011, 55(7), 3534-3537). Larvae were inoculated with P. aeruginosa GR57, E. coli EC98 and K. pneumoniae KP120. In combination therapies, a fixed ratio (1:8) of MEM:ML302F containing 0.6 mg/Kg of MEM8 and 4.8 mg/Kg of ML302F was administered in 10 μL injections to infected larvae. PBS injections (10 μL) were used as both controls for no antimicrobial therapy and inoculation injury. Larvae were scored for survival over 96 hrs and kill curves analysed by the log-rank test for trend. Relative risk (RR) of survival between the different treatment arms was calculated using Fisher's exact test with, two-tailed P-values of <0.05 considered statistically significant.

E. coli EC98 = test: as above; assay type: in vivo; conditions: EC 98 infection; 96 hrs; MEM 0.6 mg/kg, ML302F 4.8 mg/kg, alone or combined (1:8)
Description: as §1

K. pneumoniae KP120 = test: as above; assay type: in vivo; conditions: KP 120 infection; 96 hrs; MEM 0.6 mg/kg, ML302F 4.8 mg/kg, alone or combined (1:8)
Description: as §1

[2] = test system: K. pneumoniae NCTC 5055 (wt); test: Meropenem MIC with and without inhibitor; assay type: cell-based; conditions: Klebsiella pneumoniae, NCTC5055, read-out: Meropenem MIC in the absence of inhibitor
Description: (§2) Further studies were carried out to determine if ML302F/ML302 potentiates β-lactam antibiotic activity in clinically derived strains containing IMP-1, IMP-4, VIM-4 or NDM-1, which are the most commonly observed MBLs in clinical isolates. All strains producing MBLs were confirmed as resistant to meropenem at the Clinical and Laboratory Standards Institute (U.S.A.) defined breakpoint of 8 μg/mL for Enterobacteriace (see Table 2 below). The minimum inhibitory concentration (MIC) of meropenem against wildtype and MBL producing Escherichia coli and Klebsiella pneumoniae strains was determined with and without increasing concentrations of ML302 or ML302F. Clinical and Laboratory Standards Institute. 2012. Methods for dilution antimicrobial susceptibility tests for bacteria that grow aerobically; 9th ed. Approved standard M07-A9. CLSI, Wayne, Pa.; and Clinical and Laboratory Standards Institute. 2012. Performance standards for antimicrobial susceptibility testing; 22nd informational supplement M100-S22. CLSI, Wayne, Pa.

E. coli 25722 (wt) = test: Meropenem MIC with and without inhibitor; assay type: cell-based; conditions: Escherichia coli, read-out: Meropenem MIC in the absence of inhibitor
Description: as §2

Row | Structure (SMILES) | In vivo toxicity ([1]; G. mellonella, injection) | Survival of all larvae ([1]; injection into hemocoel, at 96 hrs) | % survival of infected larvae (P. aeruginosa GR57) | % survival of infected larvae (E. coli EC98) | % survival of infected larvae (K. pneumoniae KP120) | MIC [2] | MIC (E. coli 25722 (wt))
1 | O=C(O)C(S)=Cc1c(Cl)ccc(Cl)c1Cl (racemic) [ML302F, 2-Mercapto-3-(2,3,6-trichlorophenyl)acrylic acid] | non-toxic | 100% | – | – | – | – | –
2 | C[C@@H](O)[C@H]1C(=O)N2C(C(=O)O)=C(S[C@@H]3CN[C@H](C(=O)N(C)C)C3)[C@H](C)[C@H]12 [Meropenem, meropenem] | – | – | 23% | 44% | 69% | ≤ 0.25 µg/mL | ≤ 0.25 µg/mL
